According to patent US7534558B2, “In vitro diagnostic test for enterovirus infections” (Universite de Lille 2 Droit Et Sante, priority 2003, dated 2009):

Key:
[1] = test system: CVB4E2/plasma induced IFNα production by PBMCs; assay: CVB4E2/plasma induced IFNα production by PBMCs (DELFIA); assay type: cell-based, human
Method: VP4, H antigen or mock proteins were preincubated for 1 h at 37° C. at different concentrations with plasma from 5 healthy subjects diluted at optimal dilution (1/10 or 1/100 ). CVB3 or CVB4 were then added for 1 hour before incubating with PBMCs. […] On the contrary, the mock proteins isolated from non-infected Hep-2 cells have non effect on the IFNα production.
(§1) PBMCs separated from whole heparinated blood are distributed into microwells (plate of 96 wells), at the rate of 5 to 8.10^5 cell in 100 μl of supplemented RPMI medium by well. The infection of PBMC is made with a final volume of 100 μl of preparation in each well. After incubation for 48 h at 37° C. under a 5% CO2 atmosphere and 90% humidity, the supernatant is harvested and used immediately for IFNα dosage, or clarified by centrifugation for 10 minutes at 180×g and stored at −80° C. until dosage of the produced IFNα.
(§2) The concentration of the produced IFNα is determined with a sensitive and specific technique, the DELFIA method (Dissociation Enhanced Lanthanide FluoroImmmoAssay) (Rönnblom and al 1997).
(§3) The dosage of IFNα is performed following the DELFIA principle (Dissociation Enhanced Lanthanide FluoroImmunoAssay), based on a immunofluorescence in retarded phase method using antibodies binding IFNα of which one is labelled with europium. The use of an activation solution will release the europium conjugated with antibodies and emit a fluorescence proportional to the amount of produced IFNα and measured with a fluorometer (fluorometer LKB Wallac 1230 ARCOSO®, Turku, Finlande).
Monoclonal anti-IFNα antibodies LT 273 (5.4 mg/ml) and LT 293 (4.8 mg/ml) supplied by Dr Gunar Alm (Uppsala, Sweden) are coated to the bottom of the wells after an incubation for 12 hours at room temperature. These plates can be stored in a buffer at 4° C. or are used immediately. Standard samples of human IFNα are prepared with an “irrelevant” monoclonal mouse antibody IgG1 in order to establish the reference curve (10 measurements). The other samples to be analysed are added to each well (100 μl) with the dilution buffer and the “irrelevant” antibodies and incubated for 2 hours with gentle stirring at room temperature. The wells are washed 3 times with the washing solution. The antibody conjugated to europium (200 μl) is added to each well, left to incubate for 1 hour at room temperature with gentle stirring. The plate is washed 6 times with a washing solution. The activation solution (200 μl), added immediately after washing and left for 20 to 30 minutes for incubation in the well, causes a cleavage of the europium bound to the antibody fixed to IFNα, emitting a fluorescence measured with the fluorescence reader (LKB Wallac 1230 ARCUS®). The IFNα concentration will be calculated from the values of the measured fluorescence by means of the Graphpad program (San Diego, USA). The detection threshold of IFNα is of 0.5 IU/ml.
The plasma from a healthy donor (optimal dilution 1/10th or 1/100th) is pre-incubated for 1 hour at 37° C. with the recombinant VP4 protein of CVB4E2 (optimal concentration at 1 μg/ml). The whole is incubated again for one hour at 37° C. in the presence of the CVB4E2 virus (dilutions at 1/10th or 1/100th; viral titer at 10^13 TCID50/ml) then applied to the PBMCs, (5.10^5/well) to incubate for 48 hours.
In the same way, the plasma preparation preincubated for 1 hour and VP4 of CVB3 are incubated for 1 hour with CVB4E2 before infecting the PBMCs for 48 hours and determinating the amount of the produced IFNα.
The virus (CVB4E2 or CVB3) infected PBMCs in the presence of plasma are deemed to be positive controls of this experimentation. The negative controls are obtained with one well of PBMC alone, one well of virus CVB4B2 alone and one well of CVB3 alone.
The CVB4E2 induced IFNα production in cultures of PBMCs previously incubated in the presence of plasma from healthy subjects was measured. […]

[2] = test system: different CVB serotypes (CVB1 to CVB6)/plasma induced IFNα production by PBMCs; assay: IFNα production during infection of PBMCs by different CVB serotypes in presence of plasma preincubated with VP4-CVB4E2; assay type: cell-based, human; conditions: plasma 1/10 preincubated 1 h with VP4 recombinant protein of CVB4E2 diluted 1/10
Method: as §1, §2, §3
Monoclonal anti-IFNα antibodies LT 273 (5.4 mg/ml) and LT 293 (4.8 mg/ml) supplied by Dr Gunar Alm (Uppsala, Sweden) are coated to the bottom of the wells after an incubation for 12 hours at room temperature. […]

recombinant VP4 protein: recombinant VP4 protein of CVB4E2, made in E. coli as MBP-VP4 fusion and cleaved by Factor Xa
IFNα production ([1]; CVB4E2 infection of PBMCs, healthy donor plasma preincubated 1 h with the VP4 protein before CVB4E2, 48 h, positive control 148 IU/ml): 8.5 IU/ml | IFNα production in the presence of CVB4E2 ([1]; plasma 1/10 preincubated 1 h with VP4 recombinant protein of CVB4E2 diluted 1/10): collapsed | IFNα production ([1]; protein at 0.01 μg/mL preincubated with plasma, then CVB4E2 (m.o.i. 1), PBMCs 48 h, mean +/- SD, three donors): 189.5+/−21.6 IU/mL | IFNα production ([1]; protein at 0.1 μg/ml preincubated with plasma, then CVB4E2 (m.o.i. 1), PBMCs 48 h, mean +/- SD, three donors): 104.7+/−4.5 IU/mL | IFNα production ([1]; protein at 1 μg/ml preincubated with plasma, then CVB4E2 (m.o.i. 1), PBMCs 48 h, mean +/- SD, three donors): 44.1+/−24.3 IU/mL | IFNα production ([1]; protein at 10 μg/ml preincubated with plasma, then CVB4E2 (m.o.i. 1), PBMCs 48 h, mean +/- SD, three donors): 15.3+/−7.9 IU/mL | IFNα production with CVB serotypes other than CVB4E2 [2]: remains high and stable
